Reference: patent US10259815B2, “Gabaergic ligands and their uses” (UWM Research Foundation, Inc., priority 2015, dated 2019)
pKi: −log10 of the molar value.

Experiments:
[1] = Liver microsomal stability, human; format: in vitro ADME; conditions: 37° C., 4 μM compound, 30 minutes
Method: (§1) In vitro metabolism studies were done in mouse, rat, human, and dogs cells (TABLE 2).
(§2) In vitro liver microsomal studies were completed to measure the stability of the compounds against degradation in various species' liver microsomes.
(§3) Compound was incubated in hepatic microsomes over a 30-minute incubation period at 37° C. Incubations both with and without NADPH (2 mM) were performed in a 96-well plate format. The reaction was initiated with the addition of substrate and was terminated by protein precipitation. All incubations were performed using a final substrate concentration of 4 μM in 50 mM sodium phosphate buffer, pH 7.4. The final organic solvent content was 0.5% acetonitrile and 0.02% DMSO. The amount of enzyme present was fixed at 1.11 mg/mL protein irrespective of the species of microsomes used. Samples were analyzed by LC/MS-MS to determine the percent loss in the NAPDH incubations relative to the NADPH free incubations.

[2] = Liver microsomal stability, dog; format: in vitro ADME; conditions: 37° C., 4 μM compound, 30 minutes
Method: as §1, §2, §3

[3] = Liver microsomal stability, mouse; format: in vitro ADME; conditions: 37° C., 4 μM compound, 30 minutes
Method: as §1, §2, §3

[4] = Liver microsomal stability, rat; format: in vitro ADME; conditions: 37° C., 4 μM compound, 30 minutes
Method: as §1, §2, §3

[5] = Pharmacokinetics after 10 mg/kg P.O. dose, mice; format: in vivo; conditions: mouse, blood, po
From the text: Although these are different species, the numbers can still be compared.

[6] = tested on: Male Sprague-Dawley rats; experiment: Inverted screen test (muscle relaxation); format: in vivo; conditions: for muscle relaxation / motor impairment in inverted screen: i.p. 30 minutes prior, diazepam 3, 10, 30 mg/kg, KRM-II-81 10, 30, 60 mg/kg, HZ-166 30 mg/kg
Method: (§4) Results were analyzed using ANOVA (Dunnett's test: *P<0.05).
The inverted screen test is used to measure whether or not a test compound induces muscle relaxation. When a test subject is placed on a wire screen which is then inverted, the reaction is to climb to the opposite side so they are no longer hanging upside down. If a compound promotes muscle relaxation, the test subjects will either fall off, or hang onto the screen without being able to climb to the opposite side.
Rats were placed onto the top of a wire screen, which was then inverted so that the rats were hanging upside down. […] Results were analyzed using ANOVA (Dunnett's test: *P<0.05).

[7] = tested on: Male CD-1 mice; experiment: Maximal electroshock (MES)-induced convulsion protection; format: in vivo; conditions: i.p. 30 minutes prior to test
Method: Male CD-1 mice (n=10) were dosed i.p. 30 minutes prior to being tested. Results were analyzed using ANOVA (Dunnett's test versus vehicle: *P<0.05).
The maximal electroshock (MES) assay is designed to determine how well a test compound can prevent seizures induced by applying a voltage stimuli to a mouse.
Mice were subjected to electrical induced tonic seizures and examined for anticonvulsant effects 30 minutes after treatment. Mice were then given a 7 mA electroshock using a Wahlquist Model H for 0.2 seconds and observed for the presence or absence of seizure activity. Each mouse is tested only once and euthanized immediately following the test.

[8] = tested on: Male Sprague-Dawley rats; experiment: scMET-induced seizure protection, rats; format: in vivo; conditions: pentylenetetrazole 35 mg/kg
Method: A 35 mg/kg subcutaneous dose of pentylenetetrazole was given and the percent outcome of seizure was recorded. Results were analyzed using ANOVA (Dunnett's test: *P<0.05).
Test subjects were given a test compound, followed by a 35 mg/kg dose of MET and observed for convulsions (FIG. 7).
as §4

[9] = tested on: Male Sprague-Dawley rats; experiment: PTZ-induced seizure threshold; format: in vivo; conditions: test compound 3 to 60 mg/kg, diazepam 0.1 to 1 mg/kg i.p.
Method: as §4
After a pretreatment of test compound, MET was intravenously administered to a test subject until a convulsions were observed.
Each animal was used only once and was euthanized post testing. Results were analyzed using ANOVA (Dunnett's test: *P<0.05).

[10] = tested on: Sprague Dawley male rats; experiment: Mechanical hyperalgesia (von Frey) in CFA-induced inflammatory pain rat model; format: in vivo; conditions: cumulative i.p. dosing, 3 days after CFA
Method: Raw data (paw withdrawal threshold, expressed in g of von Frey filament) was converted to a maximal possible effect value according the following equation: % MPE=[(test threshold(g)−control threshold(g)/(pre-CFA threshold−control threshold)]×100.
Complete Freund's adjuvant (CFA) contains Mycobacterium butyricum, inducing inflammation and an increase in paw thickness. 0.1 mL of CFA was injected in the right hind paw of Sprague Dawley male rats under isoflurane anaesthesia.
Mechanical hyperalgesia. Mechanical hyperalgesia was measured 3 days after CFA treatment. Rats (n=6) were placed in elevated boxes with a mesh floor. Von Frey filaments (expressed in g) were applied perpendicularly to the hindpaws, starting with the lowest filament (1.4 g) then increased until hindpaw withdrawal was observed. After each measurement, rats received the next dose of drug (every 20 min) until the maximum threshold (26 g) was observed. For the antagonist study, rats were pretreated with the benzodiazepine site antagonist flumazenil (10 min) and then received the next dose of drug (every 20 min) until the pre-CFA threshold was observed.
Drugs. The following drugs were used: HZ166, KRM-II-18B, and KRM-II-81, and were dissolved in a mixture containing 20% Dimethyl sulfoxide (DMSO), 10% Emulphor-620 (Rhodia Inc.), and 70% of 0.9% saline. Flumazenil (purchased from Cayman Chemical Company, MI) was dissolved in a mixture containing 10% ethanol, 40% propylene glycol, and 50% sterile water. Midazolam (Akorn, Inc.) was dissolved in 0.9% saline. Doses were expressed as the weight of the drug in milligrams per kilogram of body weight and drugs were administered intraperitoneally.

[11] = tested on: Male CD-1 mice; conditions: previously shown; cited from earlier work
[12] = tested on: Male Sprague-Dawley rats; conditions: previously shown; species not stated; cited from earlier work
[13] = tested on: rhesus monkeys; conditions: previously shown; cited from earlier work
[14] = tested on: Male Sprague-Dawley rats; conditions: has been shown; cited from earlier work
[15] = tested on: Male NIH Swiss mice; conditions: previously shown; cited from earlier work
[16] = target: GABAA/α1 receptors (Homo sapiens, UniProt P14867+P18507); conditions: as disclosed in Huang, et al., J. Med. Chem. 2000; cited from earlier work
GABAA/α1 receptors, sequence (P14867 28-456): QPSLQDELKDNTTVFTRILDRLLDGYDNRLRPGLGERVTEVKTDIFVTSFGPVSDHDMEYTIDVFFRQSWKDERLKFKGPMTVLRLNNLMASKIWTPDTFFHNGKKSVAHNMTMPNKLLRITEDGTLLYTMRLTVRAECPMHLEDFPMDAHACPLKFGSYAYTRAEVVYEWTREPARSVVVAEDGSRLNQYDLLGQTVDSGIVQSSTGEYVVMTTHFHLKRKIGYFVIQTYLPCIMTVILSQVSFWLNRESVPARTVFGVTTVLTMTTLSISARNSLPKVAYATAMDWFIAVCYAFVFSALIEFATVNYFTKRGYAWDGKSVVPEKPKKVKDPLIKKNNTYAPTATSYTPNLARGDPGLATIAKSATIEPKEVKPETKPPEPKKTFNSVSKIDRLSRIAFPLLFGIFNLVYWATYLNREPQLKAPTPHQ
GABAA/α1 receptors, sequence (P28472 26-473 partner): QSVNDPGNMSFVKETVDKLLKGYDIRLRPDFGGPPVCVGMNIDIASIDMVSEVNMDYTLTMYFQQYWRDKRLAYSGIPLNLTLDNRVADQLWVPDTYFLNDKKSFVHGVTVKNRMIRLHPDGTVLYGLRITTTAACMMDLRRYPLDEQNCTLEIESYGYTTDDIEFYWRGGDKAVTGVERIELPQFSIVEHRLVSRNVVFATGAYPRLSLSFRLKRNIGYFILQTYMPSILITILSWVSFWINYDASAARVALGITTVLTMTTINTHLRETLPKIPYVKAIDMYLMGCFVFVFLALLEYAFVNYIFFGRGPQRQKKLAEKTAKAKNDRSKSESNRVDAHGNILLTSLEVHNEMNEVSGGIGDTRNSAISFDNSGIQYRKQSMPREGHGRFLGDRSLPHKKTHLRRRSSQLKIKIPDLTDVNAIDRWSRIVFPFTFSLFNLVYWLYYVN
GABAA/α1 receptors, sequence (P18507 40-475): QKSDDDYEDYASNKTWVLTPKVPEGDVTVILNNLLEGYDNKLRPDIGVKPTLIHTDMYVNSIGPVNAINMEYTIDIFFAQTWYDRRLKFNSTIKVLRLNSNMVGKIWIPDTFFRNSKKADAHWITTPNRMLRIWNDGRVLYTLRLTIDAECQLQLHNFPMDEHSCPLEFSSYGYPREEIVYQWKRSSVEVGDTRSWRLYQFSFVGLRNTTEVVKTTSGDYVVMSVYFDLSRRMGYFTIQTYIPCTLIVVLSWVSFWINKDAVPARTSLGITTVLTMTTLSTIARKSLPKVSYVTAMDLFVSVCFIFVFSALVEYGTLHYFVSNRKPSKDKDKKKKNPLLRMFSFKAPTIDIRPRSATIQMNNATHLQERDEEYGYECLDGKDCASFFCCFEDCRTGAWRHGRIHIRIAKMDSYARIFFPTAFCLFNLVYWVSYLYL

[17] = target: GABAA/α2 (Homo sapiens, UniProt P18507+P47869); conditions: as disclosed in Huang, et al., J. Med. Chem. 2000; cited from earlier work
GABAA/α2, sequence (P47869 29-451): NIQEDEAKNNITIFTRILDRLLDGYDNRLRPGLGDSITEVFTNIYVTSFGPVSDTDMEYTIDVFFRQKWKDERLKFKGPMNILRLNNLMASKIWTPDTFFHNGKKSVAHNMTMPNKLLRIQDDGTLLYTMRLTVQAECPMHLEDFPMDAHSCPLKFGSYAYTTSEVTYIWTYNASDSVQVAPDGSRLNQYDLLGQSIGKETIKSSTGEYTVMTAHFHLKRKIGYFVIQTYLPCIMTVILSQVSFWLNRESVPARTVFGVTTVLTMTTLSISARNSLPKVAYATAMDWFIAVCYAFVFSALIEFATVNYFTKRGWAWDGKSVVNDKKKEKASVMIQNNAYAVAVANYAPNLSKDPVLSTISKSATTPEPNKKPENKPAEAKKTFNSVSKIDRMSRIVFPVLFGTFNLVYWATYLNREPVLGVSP
GABAA/α2, sequence (P28472 26-473 partner): as the sequence (P28472 26-473 partner) above
GABAA/α2, sequence (P18507 40-475): as the sequence (P18507 40-475) above

[18] = target: GABAA/α3 (Homo sapiens, UniProt P18507+P34903); conditions: as disclosed in Huang, et al., J. Med. Chem. 2000; cited from earlier work
GABAA/α3, sequence (P34903 29-492): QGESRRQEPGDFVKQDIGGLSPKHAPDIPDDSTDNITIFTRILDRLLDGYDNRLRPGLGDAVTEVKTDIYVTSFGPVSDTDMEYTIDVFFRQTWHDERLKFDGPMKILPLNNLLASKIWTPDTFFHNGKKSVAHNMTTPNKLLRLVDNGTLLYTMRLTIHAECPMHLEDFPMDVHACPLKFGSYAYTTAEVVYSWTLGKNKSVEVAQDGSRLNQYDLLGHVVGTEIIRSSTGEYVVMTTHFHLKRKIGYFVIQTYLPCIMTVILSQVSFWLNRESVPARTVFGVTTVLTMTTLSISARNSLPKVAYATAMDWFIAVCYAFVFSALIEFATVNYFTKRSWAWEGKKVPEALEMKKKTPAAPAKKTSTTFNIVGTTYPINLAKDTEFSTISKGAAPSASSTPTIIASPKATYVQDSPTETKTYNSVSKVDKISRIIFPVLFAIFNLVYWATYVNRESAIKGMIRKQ
GABAA/α3, sequence (P28472 26-473 partner): as the sequence (P28472 26-473 partner) above
GABAA/α3, sequence (P18507 40-475): as the sequence (P18507 40-475) above

[19] = target: GABAA/α5 receptors (Homo sapiens, UniProt P18507+P31644); conditions: as disclosed in Huang, et al., J. Med. Chem. 2000; cited from earlier work
GABAA/α5 receptors, sequence (P31644 32-462): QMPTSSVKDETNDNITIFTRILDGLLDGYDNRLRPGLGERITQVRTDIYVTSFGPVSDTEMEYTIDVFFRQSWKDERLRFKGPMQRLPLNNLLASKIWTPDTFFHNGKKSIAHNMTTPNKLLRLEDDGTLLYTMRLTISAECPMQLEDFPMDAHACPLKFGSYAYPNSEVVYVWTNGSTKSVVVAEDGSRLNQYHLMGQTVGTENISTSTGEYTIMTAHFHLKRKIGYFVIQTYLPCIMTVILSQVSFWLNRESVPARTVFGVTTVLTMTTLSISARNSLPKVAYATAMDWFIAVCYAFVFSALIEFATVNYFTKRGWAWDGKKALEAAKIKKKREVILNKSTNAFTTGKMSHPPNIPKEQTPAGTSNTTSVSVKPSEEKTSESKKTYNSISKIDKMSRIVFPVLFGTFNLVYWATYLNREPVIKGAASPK
GABAA/α5 receptors, sequence (P28472 26-473 partner): as the sequence (P28472 26-473 partner) above
GABAA/α5 receptors, sequence (P18507 40-475): as the sequence (P18507 40-475) above

SMILES: C#Cc1ccc2c(c1)C(c1ccccn1)=NCc1c(C(=O)OCC)ncn1-2 [HZ-166, Ethyl-8-ethynyl-6-(pyridin-2-yl)-4H-benzo[f]imidazo[1,5-a][1,4]diazepine-3-carboxylate]
- Human Liver microsome stability (reported in % remaining) [1]: 80 % remaining
- Dog Liver microsome stability (reported in % remaining) [2]: 97 % remaining
- Mouse Liver microsome stability (reported in % remaining) [3]: 54 % remaining
- Rat Liver microsome stability (reported in % remaining) [4]: 50 % remaining
- Tmax [5]: 5.58 h
- Cmax ([5]; read-out: Cmax (highest concentration found in blood)): 4.11 ng/mL
- muscle relaxation / motor impairment in inverted screen [6]: Neither HZ-166 nor KRM-II-81 induced significant muscle relaxation
- dose at which signs of muscle relaxation began to appear ([6]; i.p., inverted screen): 30 mg/kg
- protection against MES-induced seizures [7]: did not
- effect against scMET seizures at 30 mg/kg ([8]; 30 mg/kg i.p.): little effect
- effect on seizure threshold to PTZ [9]: little protection
- mechanical hyperalgesia in CFA-induced inflammatory pain [10]: dose-dependently attenuated mechanical hyperalgesia
- effectiveness in MES assay [11]: effective in this assay
- protection against scMET-induced seizures [12]: giving protection against scMET-induced seizures
- effectiveness in conflict procedure [13]: effective in rhesus monkeys
- performance in von Frey filament assay [14]: perform well in this assay
- doses with no ataxic complications [15]: over 100 mg/kg

SMILES: C#Cc1ccc2c(c1)C(c1ccccc1)=NCC(=O)N2C [QH-ii-066]
- pKi [16]: < 7.15
- pKi [17]: > 7.30
- pKi [18]: > 7.30
- pKi [19]: > 8.00

SMILES: CN1C(=O)CN=C(c2ccccc2)c2cc(Cl)ccc21 [diazepam, reference compound]
- muscle relaxation / motor impairment in inverted screen [6]: produced full motor impairment
- protection against MES-induced seizures [7]: fully protected against seizure induction
- dose achieving significant protection against scMET seizures ([8]; i.p. 30 minutes prior): 10 mg/kg
- effect on seizure threshold to PTZ [9]: significantly increased the seizure threshold to PTZ
